Experimental data taken from US9969758B2, “Antimicrobial compounds” (BIOMERIEUX, priority 2014, dated 2018).
Values after ≈ are worked out from the molar mass of the structure shown. Read-outs that look alike come from different tables or passages of the source.

Key:
Assay in all cases: MIC by agar dilution
[1] = tested on: E. coli (53); type: cell-based, Escherichia coli; settings: for MIC50 / MIC90 / MIC: Escherichia coli; for MIC: read-out: Modal MIC (most frequent MIC)
Description: (§1) Bacterial isolates. […] These included Citrobacter freundii (n=5), other species of Citrobacter (n=4), Enterobacter aerogenes (n=1), Enterobacter cloacae (n=27), Escherichia coli (n=53), Klebsiella oxytoca (n=5), Klebsiella pneumoniae (n=87), Kluyvera spp (n=1), Proteus mirabilis (n=8), Providencia rettgeri (n=2), Salmonella spp (n=3), and Serratia marcescens (n=1). Among these 197 isolates, there were 128 (65%) carbapenemase producers, including; 87 with NDM-1, 9 with IMP, 11 with KPC, 14 with OXA-48 and 7 with VIM. The majority of the carbapenemase producers jointly produced broad-spectrum β-lactamases (BSBL) or cephalosporinases (AmpC β-lactamases), but the latter are not documented for the sake of clarity.
(§2) Determining the minimum inhibitory concentrations (MIC). All the MICs were determined using an agar dilution method. This required use of a medium without a defined antagonist (peptone-free), prepared as described previously with the inclusion of 2% horse blood lysed with saponin, 25.0 μg/mL of NAD and 25.0 μg/mL of hemin [17]. The compounds tested were dissolved in sterile deionised water and incorporated into the agar medium in a concentration range of 0.0031 to 8.0 μg/mL (0.016 to 32 μg/mL for gram-positive bacteria). All the isolates were prepared at a density equivalent to 0.5 McFarland units in sterile deionised water using a densitometer (approximately 1.5×10^8 CFU/mL), and then diluted to 1 for 15. An aliquot of 1 μL of each diluted suspension was then placed onto plates with a multispot inoculator to give the final recommended inoculation of 10 000 CFU/spot. The MICs of fosfomycin were determined by the same method, except that the IsoSensitest medium (Oxoid, Basingstoke, United Kingdom) was used, plus 25.0 μg/mL of glucose-6-phosphate (Sigma, Poole, United Kingdom) and an extended range of fosfomycin concentrations. All the dishes (including the antimicrobial-free controls) were incubated for 22 hours at 37° C. All the tests were performed on at least two independent replicates in order to examine the reproducibility.

[2] = tested on: K. pneumoniae (87); type: cell-based, Klebsiella pneumoniae; settings: Klebsiella pneumoniae; for MIC: read-out: Modal MIC (most frequent MIC)
Description: as §1, §2

[3] = tested on: E. cloacae (27); type: cell-based, Enterobacter cloacae; settings: Enterobacter cloacae; for MIC: read-out: Modal MIC (most frequent MIC)
Description: as §1, §2

[4] = tested on: AmpC (22); type: cell-based, Enterobacteriaceae; settings: for MIC: read-out: Modal MIC (most frequent MIC)
Description: as §1, §2

[5] = tested on: All S. aureus (50); type: cell-based, Staphylococcus aureus; settings: for MIC50 / MIC90 / MIC: Staphylococcus aureus; for MIC: read-out: Modal MIC (most frequent MIC)
Description: (§3) A collection of 50 isolates of Staphylococci aureus included 36 strains of methicillin-resistant S. aureus (MRSA) frequently encountered in Europe, including strains isolated in Belgium, Finland, France, Germany and the United Kingdom. Another strain of MRSA, NCTC 11939, was included as a control, as well as a methicillin-sensitive control (NCTC 6571). Twelve other isolates of methicillin-sensitive Staphylococcus aureus (MSSA) recently collected from blood cultures were also included. Finally, 50 isolates of enterococci included two control strains (Enterococcus faecalis NCTC 755 and Enterococcus faecium NCTC 7171) and 48 isolates originating from clinical samples obtained from at least three different hospitals. The clinical isolates included E. faecalis (n=10), E. faecium (n=33), Enterococcus casseliflavus (n=3), Enterococcus gallinarum (n=2).
as §2

[6] = tested on: All Enterococci (50); type: cell-based; settings: for MIC: read-out: Modal MIC (most frequent MIC)
Description: as §3, §2

[7] = tested on: glycopeptide-resistant enterococci; type: cell-based; settings: for MIC: read-out: Modal MIC (most frequent MIC)
Description: as §3, §2

[8] = tested on: methicillin-resistant Staphylococcus aureus; type: cell-based; settings: for MIC50 / MIC90 / MIC: Staphylococcus aureus; for MIC: read-out: Modal MIC (most frequent MIC)
Description: as §3, §2

[9] = tested on: methicillin-sensitive Staphylococcus aureus; type: cell-based; settings: for MIC50 / MIC90 / MIC: Staphylococcus aureus; for MIC: read-out: Modal MIC (most frequent MIC)
Description: as §3, §2

[10] = tested on: E. faecalis (11); type: cell-based, Enterococcus faecalis; settings: for MIC50 / MIC90 / MIC: Enterococcus faecalis; for MIC: read-out: Modal MIC (most frequent MIC)
Description: as §3, §2

[11] = tested on: E. faecium (34); type: cell-based, Enterococcus faecium; settings: Enterococcus faecium; for MIC: read-out: Modal MIC (most frequent MIC)
Description: as §3, §2

[12] = tested on: Enterobacteriaceae (197); type: cell-based; settings: for MIC: read-out: Modal MIC (most frequent MIC)
Description: as §1, §2

[13] = tested on: Enterobacteriaceae with a broad-spectrum β-lactamase; type: cell-based; settings: for MIC: read-out: Modal MIC (most frequent MIC)
Description: as §1, §2

[14] = tested on: carbapenemase-producing Enterobacteriaceae; type: cell-based; settings: for MIC: read-out: Modal MIC (most frequent MIC)
Description: as §1, §2

In the case of `C[C@@H]1O[C@@H]1P(=O)(O)O` [Fosfomycin, disodium [(2R,3S)-3-methyloxiran-2-yl] phosphonate], the “MIC Range” value ([1]; E. coli (53)) is reported as 0.125 to 8 µg/mL, the MIC50 ([1]; E. coli (53), read-out: MIC50) is reported as 0.5 µg/mL and the MIC90 ([1]; E. coli (53), read-out: MIC90) is reported as 1 µg/mL. For the same molecule, the MIC ([1]; E. coli (53)) was 0.5 µg/mL, the MIC50 ([2]; K. pneumoniae (87), read-out: MIC50) was 8 µg/mL and the MIC90 ([2]; K. pneumoniae (87), read-out: MIC90) was over 32 µg/mL. For the same molecule, the MIC ([2]; K. pneumoniae (87)) was 4 µg/mL, the MIC50 ([3]; E. cloacae (27), read-out: MIC50) was 16 µg/mL and the MIC90 ([3]; E. cloacae (27), read-out: MIC90) was 32 µg/mL. For the same molecule, the MIC ([3]; E. cloacae (27)) was 16 µg/mL, the MIC90 [4] was over 32 µg/mL and the MIC [4] was 32 µg/mL. For the same molecule, the MIC50 ([5]; All S. aureus (50), read-out: MIC50) was 4 µg/mL, the MIC90 ([5]; All S. aureus (50), read-out: MIC90) was 16 µg/mL and the MIC ([5]; All S. aureus (50)) was 8 µg/mL. The MIC50 ([6]; All Enterococci (50), read-out: MIC50) was over 32 µg/mL, the MIC90 ([6]; All Enterococci (50), read-out: MIC90) was over 32 µg/mL and the MIC ([6]; All Enterococci (50)) was over 32 µg/mL. It also gave an MIC50 ([7]; GRE (43), read-out: MIC50) of over 32 µg/mL, an MIC90 ([7]; GRE (43), read-out: MIC90) of over 32 µg/mL and an MIC ([7]; GRE (43)) of over 32 µg/mL. For the same molecule, the MIC50 ([8]; MRSA (37), read-out: MIC50) was 4 µg/mL, the MIC90 ([8]; MRSA (37), read-out: MIC90) was 16 µg/mL and the MIC ([8]; MRSA (37)) was 8 µg/mL. For the same molecule, the “MIC Range” value ([9]; MSSA (13)) was 2 to 16 µg/mL, the MIC50 ([9]; MSSA (13), read-out: MIC50) was 4 µg/mL and the MIC90 ([9]; MSSA (13), read-out: MIC90) was 16 µg/mL. For the same molecule, the MIC ([9]; MSSA (13)) was 4 µg/mL, the MIC50 ([10]; E. faecalis (11), read-out: MIC50) was 32 µg/mL and the MIC90 ([10]; E. faecalis (11), read-out: MIC90) was over 32 µg/mL. The MIC ([10]; E. faecalis (11)) was 32 µg/mL, the MIC50 ([11]; E. faecium (34), read-out: MIC50) was over 32 µg/mL and the MIC90 ([11]; E. faecium (34), read-out: MIC90) was over 32 µg/mL. For the same molecule, the MIC ([11]; E. faecium (34)) was over 32 µg/mL, the MIC50 ([12]; Enterobacteriaceae (197), read-out: MIC50) was 4 µg/mL and the MIC90 ([12]; Enterobacteriaceae (197), read-out: MIC90) was over 32 µg/mL. For the same molecule, the MIC ([12]; Enterobacteriaceae (197)) was 4 µg/mL, the MIC50 ([13]; BSBL (47), read-out: MIC50) was 8 µg/mL and the MIC90 ([13]; BSBL (47), read-out: MIC90) was over 32 µg/mL. For the same molecule, the MIC ([13]; BSBL (47)) was over 32 µg/mL, the MIC50 [14] was 4 µg/mL and the MIC90 [14] was 32 µg/mL. The MIC [14] was 16 µg/mL.

In the case of `N[C@@H](CCl)C(=O)N[C@@H](CCl)C(=O)O` [β-Cl-Ala-β-Cl-Ala, β-chloro-L-alanyl-β-chloro-L-alanine], the MIC50 [1] is reported as 8 µg/mL (≈ 34.9 µM), the MIC90 [1] is reported as over 8 µg/mL and the MIC [1] is reported as 8 µg/mL (≈ 34.9 µM). The MIC50 [2] was over 8 µg/mL, the MIC90 [2] was over 8 µg/mL and the MIC [2] was over 8 µg/mL. For the same molecule, the MIC50 [3] was over 8 µg/mL, the MIC90 [3] was over 8 µg/mL and the MIC [3] was over 8 µg/mL. For the same molecule, the MIC50 [4] was over 8 µg/mL, the MIC90 [4] was over 8 µg/mL and the MIC [4] was over 8 µg/mL. For the same molecule, the “MIC Range” value ([5]; All S. aureus (50)) was 0.125 to 16 µg/mL, the MIC50 [5] was 2 µg/mL (≈ 8.73 µM) and the MIC90 [5] was 4 µg/mL (≈ 17.5 µM). For the same molecule, the MIC [5] was 2 µg/mL (≈ 8.73 µM), the MIC50 [6] was 16 µg/mL (≈ 69.8 µM) and the MIC90 [6] was 32 µg/mL (≈ 140 µM). For the same molecule, the “MIC Range” value ([6]; All Enterococci (50)) was 2 to 16 µg/mL, the MIC [6] was 16 µg/mL (≈ 69.8 µM) and the MIC50 [7] was 16 µg/mL (≈ 69.8 µM). The MIC90 [7] was over 32 µg/mL, the MIC [7] was 16 µg/mL (≈ 69.8 µM) and the “MIC Range” value ([8]; MRSA (37)) was 0.125 to 16 µg/mL. For the same molecule, the MIC50 ([8]; MRSA) was 2 µg/mL (≈ 8.73 µM), the MIC90 ([8]; MRSA) was 4 µg/mL (≈ 17.5 µM) and the MIC ([8]; MRSA) was 2 µg/mL (≈ 8.73 µM). For the same molecule, the “MIC Range” value ([9]; MSSA (13)) was 0.5 to 2 µg/mL, the MIC50 ([9]; MSSA) was 1 µg/mL (≈ 4.37 µM) and the MIC90 ([9]; MSSA) was 2 µg/mL (≈ 8.73 µM). For the same molecule, the MIC ([9]; MSSA) was 1 µg/mL (≈ 4.37 µM), the “MIC Range” value ([10]; E. faecalis (11)) was 4 to 16 µg/mL and the MIC50 [10] was 8 µg/mL (≈ 34.9 µM). It also gave an MIC90 [10] of 16 µg/mL (≈ 69.8 µM), an MIC [10] of 8 µg/mL (≈ 34.9 µM) and an MIC50 [11] of 16 µg/mL (≈ 69.8 µM). For the same molecule, the MIC90 [11] was 32 µg/mL (≈ 140 µM), the MIC [11] was 16 µg/mL (≈ 69.8 µM) and the MIC50 [12] was over 8 µg/mL. The MIC90 [12] was over 8 µg/mL, the MIC [12] was over 8 µg/mL and the MIC50 [13] was over 8 µg/mL. It also gave an MIC90 [13] of over 8 µg/mL, an MIC [13] of over 8 µg/mL and an MIC50 [14] of over 8 µg/mL. The MIC90 [14] was over 8 µg/mL and the MIC [14] was over 8 µg/mL.
